Assay results reported in patent US10195185B2, “3-(1H-imidazo[4,5-C]pyridin-2-yl)-1H-pyrazolo[4,3-B]pyridines and therapeutic uses thereof” (Samumed, LLC, priority 2015, dated 2019).
pEC50: −log10 of the molar value.

Tests used:
Type in all cases: cell-based
[1] = tested on: Wnt activity (Wnt-responsive human Sp5 promoter, TCF/LEF binding sites) in SW480 colon carcinoma cells; assay: Wnt activity screening assay: Sp5-Luc luciferase reporter gene in SW480 cells; conditions: for pEC50: 10-point dose-response from 10 μM, incubated overnight; for inhibition at 10 µM: given for EC50 of >10 μM, read-out: percent inhibition at 10 μM
Summary of the method: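 SW480 cells stably transduced with an Sp5 promoter (eight TCF/LEF sites)–firefly luciferase lentiviral reporter, plated at 4,000 cells/well in 1% FBS medium with compounds (10-point 1:3 series from 10 μM, 0.1% DMSO) overnight at 37 °C. BrightGlo luminescence normalised to DMSO; EC50 by four-parameter fit, else % inhibition at 10 μM.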

[2] = tested on: IL-6 in human monocyte cell line (THP-1 cells); assay: IL-6 inhibition in LPS-stimulated THP-1 cells (HTRF); conditions: IL-6 in LPS-stimulated THP-1 cells; for pEC50: HTRF; for inhibition at 10 µM: read-out: percent inhibition in brackets beside EC50 >10 μM
Summary of the method: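 THP-1 cells, serum-reduced (1% FBS) for 24 h, were preincubated with compound (10-point 1:3 series from 10 μM, 0.1% DMSO) for 2 h, then stimulated with 500 ng/mL LPS for 22 h at 37° C. IL-6 was read by HTRF (665/620 nm ratio) and normalized to DMSO. EC50 from four-parameter fit; % inhibition at 10 μM given if EC50 >10 μM.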

SW480 colon cancer cells = assay: Cell viability assay (CellTiter-Blue), four days; conditions: Homo sapiens, 96 h; for inhibition at 10 µM: read-out: percent inhibition at 10 μM (given for EC50 of >10 μM); for pEC50: CellTiter-Blue cell viability
Summary of the method: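 Approximately 2×10^3 SW480 cells per well are seeded with compound (8 points, threefold steps, top 10 μM) and incubated four days at 37 °C. CellTiter-Blue is then added for about 3 h and fluorescence read. Non-linear regression gives EC50; for values beyond 10 μM, percent inhibition at that concentration is listed.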

| Compound | pEC50 [1] | pEC50 [2] | pEC50 (SW480 colon cancer cells) | inhibition at 10 µM [1] [%] | inhibition at 10 µM (SW480 colon cancer cells) [%] | inhibition at 10 µM [2] [%] |
| --- | --- | --- | --- | --- | --- | --- |
| Cc1cn(-c2nccc3[nH]c(-c4n[nH]c5ccc(-c6cncc(CN7CCCC7)c6)nc45)nc23)cn1 [Compound 210, 3-(4-(4-Methyl-1H-imidazol-1-yl)-1H-imidazo[4,5-c]pyridin-2-yl)-5-(5-(pyrrolidin-1-ylmethyl)pyridin-3-yl)-1H-pyrazolo [4,3-b]pyridine] | < 5.00 | < 5.00 | < 5.00 | 5.5 | 7.2 | 24.5 |
| CC(C)C(=O)Nc1cncc(-c2ccc3[nH]nc(-c4nc5c(N6CCN(C)CC6)nccc5[nH]4)c3n2)c1 [Compound 233, N-(5-(3-(4-(4-Methylpiperazin-1-yl)-1H-imidazo[4,5-c]pyridin-2-yl)-1H-pyrazolo[4,3-b]pyridin-5-yl)pyridin-3-yl)isobutyramide] | < 5.00 | < 5.00 | < 5.00 | 6.4 | 1.6 | 24 |
| CC(C)(C)C(=O)Nc1cncc(-c2ccc3[nH]nc(-c4nc5c(-c6ccc(F)cc6)nccc5[nH]4)c3n2)c1 [Compound 36, N-(5-(3-(4-(4-Fluorophenyl)-1H-imidazo[4,5-c]pyridin-2-yl)-1H-pyrazolo [4,3-b]pyridin-5-yl)pyridin-3-yl)pivalamide] | 5.48 | < 5.00 | 5.44 | – | – | 0 |
| O=C(Nc1cncc(-c2ccc3[nH]nc(-c4nc5cnccc5[nH]4)c3n2)c1)C1CCCCC1 [Compound 275, N-(5-(3-(1H-Imidazo[4,5-c]pyridin-2-yl)-1H-pyrazolo[4,3-b]pyridin-5-yl)pyridin-3-yl)cyclohexanecarboxamide] | < 5.00 | < 5.00 | < 5.00 | 0 | 0 | 31.5 |
| Fc1cccc(-c2nccc3[nH]c(-c4n[nH]c5ccc(-c6cncc(CN7CCC(F)(F)C7)c6)nc45)nc23)c1 [Compound 26, 5-(5-((3,3-Difluoropyrrolidin-1-yl)methyl)pyridin-3-yl)-3-(4-(3-fluorophenyl)-1H-imidazo[4,5-c]pyridin-2-yl)-1H-pyrazolo[4,3-b]pyridine] | 6.26 | < 5.00 | 5.91 | – | – | 0 |
| CCCC(=O)Nc1cncc(-c2ccc3[nH]nc(-c4nc5c(-c6ccsc6)nccc5[nH]4)c3n2)c1 [Compound 297, N-(5-(3-(4-(Thiophen-3-yl)-1H-imidazo[4,5-c]pyridin-2-yl)-1H-pyrazolo [4,3-b]pyridin-5-yl)pyridin-3-yl)butyramide] | 5.68 | 5.44 | 5.96 | – | – | – |
| O=C(Nc1cncc(-c2ccc3[nH]nc(-c4nc5c(-c6ccsc6)nccc5[nH]4)c3n2)c1)c1ccccc1 [Compound 291, N-(5-(3-(4-(Thiophen-3-yl)-1H-imidazo[4,5-c]pyridin-2-yl)-1H-pyrazolo [4,3-b]pyridin-5-yl)pyridin-3-yl)benzamide] | < 5.00 | < 5.00 | < 5.00 | 3.3 | 2 | 0 |
| Cc1ccc(-c2nccc3[nH]c(-c4n[nH]c5ccc(C6=CCNCC6)nc45)nc23)s1 [Compound 730, 3-(4-(5-Methylthiophen-2-yl)-1H-imidazo[4,5-c]pyridin-2-yl)-5-(1,2,3,6-tetrahydropyridin-4-yl)-1H-pyrazolo[4,3-b]pyridine] | < 5.00 | < 5.00 | 5.28 | 43.4 | – | 29.5 |
| Fc1ccc(-c2nccc3[nH]c(-c4n[nH]c5ccc(-c6cncc(CN7CCCC7)c6)nc45)nc23)cc1 [Compound 42, 3-(4-(4-Fluorophenyl)-1H-imidazo[4,5-c]pyridin-2-yl)-5-(5-(pyrrolidin-1-ylmethyl)pyridin-3-yl)-1H-pyrazolo[4,3-b]pyridine] | < 5.00 | < 5.00 | 5.02 | 28.2 | – | 23.3 |
| O=C(Nc1cncc(-c2ccc3[nH]nc(-c4nc5c(-c6ccccc6F)nccc5[nH]4)c3n2)c1)C1CCCC1 [Compound 78, N-(5-(3-(4-(2-Fluorophenyl)-1H-imidazo[4,5-c]pyridin-2-yl)-1H-pyrazolo [4,3-b]pyridin-5-yl)pyridin-3-yl)cyclopentanecarboxamide] | < 5.00 | < 5.00 | < 5.00 | 14.8 | 19.8 | 29.7 |

Now from value to molecule, other results behind:

| pEC50 [1] | pEC50 [2] | pEC50 (SW480 colon cancer cells) | Compound | inhibition at 10 µM [1] [%] | inhibition at 10 µM (SW480 colon cancer cells) [%] | inhibition at 10 µM [2] [%] |
| --- | --- | --- | --- | --- | --- | --- |
| < 5.00 | 6.31 | < 5.00 | COc1cccc(-c2nccc3[nH]c(-c4n[nH]c5ccc(-c6cncc(O)c6)nc45)nc23)c1 [Compound 1030, 5-(3-(4-(3-Methoxyphenyl)-1H-imidazo[4,5-c]pyridin-2-yl)-1H-pyrazolo [4,3-b]pyridin-5-yl)pyridin-3-ol] | 14.1 | 6 | – |
| < 5.00 | < 5.00 | < 5.00 | O=C(CC1CCNCC1)Nc1cncc(-c2ccc3[nH]nc(-c4nc5c(-c6ccsc6)nccc5[nH]4)c3n2)c1 [Compound 673, 2-(Piperidin-4-yl)-N-(5-(3-(4-(thiophen-3-yl)-1H-imidazo[4,5-c]pyridin-2-yl)-1H-pyrazolo[4,3-b]pyridin-5-yl)pyridin-3-yl)acetamide] | 22.6 | 6.6 | 40.5 |
| 5.51 | < 5.00 | 5.79 | CN(C)CC(=O)Nc1cncc(-c2ccc3[nH]nc(-c4nc5c(-c6cccc(F)c6)nccc5[nH]4)c3n2)c1 [Compound 969, 2-(Dimethylamino)-N-(5-(3-(4-(3-fluorophenyl)-1H-imidazo[4,5-c]pyridin-2-yl)-1H-pyrazolo[4,3-b]pyridin-5-yl)pyridin-3-yl)acetamide] | – | – | 31.8 |
| 6.45 | 6.32 | 6.36 | CC(C)Nc1cncc(-c2ccc3[nH]nc(-c4nc5c(-c6ccoc6)nccc5[nH]4)c3n2)c1 [Compound 320, 5-(3-(4-(Furan-3-yl)-1H-imidazo[4,5-c]pyridin-2-yl)-1H-pyrazolo[4,3-b]pyridin-5-yl)-N-isopropylpyridin-3-amine] | – | – | – |
| < 5.00 | < 5.00 | < 5.00 | COc1cccc(-c2nccc3[nH]c(-c4n[nH]c5ccc(-c6cncc(OC7CCNCC7)c6)nc45)nc23)c1 [Compound 1025, 3-(4-(3-Methoxyphenyl)-1H-imidazo[4,5-c]pyridin-2-yl)-5-(5-(piperidin-4-yloxy)pyridin-3-yl)-1H-pyrazolo[4,3-b]pyridine] | 15.1 | 12.7 | 26.9 |
| < 5.00 | 6.00 | < 5.00 | CN1CCN(c2nccc3[nH]c(-c4n[nH]c5ccc(-c6cnccn6)nc45)nc23)CC1 [Compound 648, 3-(4-(4-Methylpiperazin-1-yl)-1H-imidazo[4,5-c]pyridin-2-yl)-5-(pyrazin-2-yl)-1H-pyrazolo[4,3-b]pyridine] | 1 | 5.4 | – |
| 5.38 | < 5.00 | < 5.00 | NC1CN(c2cncc(-c3ccc4[nH]nc(-c5nc6c(-c7ccc(Cl)s7)nccc6[nH]5)c4n3)n2)C1 [Compound 1068, 1-(6-(3-(4-(5-Chlorothiophen-2-yl)-1H-imidazo[4,5-c]pyridin-2-yl)-1H-pyrazolo[4,3-b]pyridin-5-yl)pyrazin-2-yl)azetidin-3-amine] | – | 48.2 | 19.2 |
| < 5.00 | < 5.00 | < 5.00 | CCC(=O)Nc1cncc(-c2ccc3[nH]nc(-c4nc5c(-c6cccs6)nccc5[nH]4)c3n2)c1 [Compound 337, N-(5-(3-(4-(Thiophen-2-yl)-1H-imidazo[4,5-c]pyridin-2-yl)-1H-pyrazolo [4,3-b]pyridin-5-yl)pyridin-3-yl)propionamide] | 31.8 | 39.4 | 0 |
| < 5.00 | < 5.00 | < 5.00 | CN(C)CCNc1cc(F)cc(-c2nccc3[nH]c(-c4n[nH]c5ccc(-c6cnccn6)nc45)nc23)c1 [Compound 792, N^1-(3-Fluoro-5-(2-(5-(pyrazin-2-yl)-1H-pyrazolo[4,3-b]pyridin-3-yl)-1H-imidazo[4,5-c]pyridin-4-yl)phenyl)-N^2,N^2-dimethylethane-1,2-diamine] | 36.2 | 22.1 | 32.6 |
| 5.46 | < 5.00 | 6.16 | CCNCc1cncc(-c2ccc3[nH]nc(-c4nc5c(-c6ccoc6)nccc5[nH]4)c3n2)c1 [Compound 314, N-((5-(3-(4-(Furan-3-yl)-1H-imidazo[4,5-c]pyridin-2-yl)-1H-pyrazolo[4,3-b]pyridin-5-yl)pyridin-3-yl)methyl)ethanamine] | – | – | 36 |
